Bridge positions count the residues as written; N and C are the ends. Peptide text beside a SMILES is read from it. I, II: the chains in the order shown.
Tests used:
[1] = CD spectroscopy, α-helicity; type: physicochemical; settings: CD in PBS, pH 7.4, final peptide concentration 10 μM, pre-incubated 37 °C 0.5 h
Protocol: (§1) Lyophilized peptides were resuspended in ddH2O (pH 7.0) at a concentration of approximately 1 mg mL^–1. […] The peptides were incubated in a water bath set at 37 °C for 0.5 h before testing. CD spectra were acquired on an MOS-450 system (BioLogic, Claix, France) using the following parameters: band width, 4.0 nm; resolution, 0.1 nm; path length, 0.1 cm; response time, 4.0 s; and scanning speed, 50 nm min^–1. For CD thermal denaturation analysis, the temperature was controlled by a BioLogic TCU250 system, and CD spectra were monitored at 222 nm from 10 °C to 90 °C at a scan speed of 2 °C min^–1.
(§2) Table S1. Biophysical properties of the designed peptides a
(§3) a CD spectra of each designed peptide were monitored in PBS, pH 7.4. The final peptide concentration was 10 μM. […]

[2] = CD thermal denaturation (Tm); type: physicochemical; settings: CD at 222 nm, 10 °C to 90 °C at 2 °C min–1, PBS pH 7.4, 10 μM peptide
Protocol: as §1
The samples were incubated at room temperature for 3 h before their full-range CD spectra or the ellipticities at 222 nm were recorded. For thermal denaturation studies, the stock peptide solutions were diluted with appropriate volumes of buffer and guanidine hydrochloride. Thermal denaturation was performed by monitoring the ellipticity change at 222 nm from 10 °C to 90 °C at a rate of 2 °C min^–1.
as §2, §3
(§4) Table S2. Sequences of designed peptides a
(§5) a The Glu residues with a thioester side chain are underlined. Isopeptide bonds are formed between Lys-9 and Glu-14 (in […]

[3] = Chemical denaturation by Gdn·HCl followed by CD at 222 nm; type: physicochemical; settings: 7 M Gdn·HCl in PBS pH 7.4, 3 h at room temperature, CD 222 nm (Fig. 3C)
Protocol: For thermal denaturation studies, the stock peptide solutions were diluted with appropriate volumes of buffer and guanidine hydrochloride.

[4] = Sedimentation velocity analysis (SVA), oligomerization state; type: physicochemical; settings: 150 μM in PBS (pH 7.4), 60,000 rpm, 20 °C, 280 nm; for Sedimentation coefficient: SEDFIT; for Observed molecular mass (kDa) by sedimentation analysis: SEDFIT c(M)
Protocol: All measurements were performed on a ProteomelabTMXL-A/XL-I analytical ultracentrifuge (Beckman Coulter, Fullerton, CA, USA) at 20 °C, as described previously. In brief, three-channel cells were used with an An-60 Tirotor. Lyophilized peptides were resuspended in ddH2O (pH 7.0) at approximately 1 mg mL^–1. The individual proteins were prepared in PBS and incubated at 37 °C for 30 min. All samples were prepared at a final concentration of 150 μM and were initially scanned at 3000 rpm for 10 min to identify the appropriate wavelength for data collection. Data were collected at 60 000 rpm at a wavelength of 280 nm. Sedimentation coefficient distribution, c(s), and molecular mass distribution, c(M), were calculated using the SEDFIT program.
Table S1. […]
Sedimentation equilibrium studies were performed at a concentration of 150 μM in PBS (pH 7.4) and a rotor speed of
60,000 rpm at 20 °C. b The theoretical molecular mass for the HR peptides in the monomeric conformation.
as §4, §5

[5] = system: HIV-1BaL; test: HIV-1BaL infection assay (TZM-b1 cells, p24 ELISA); type: cell-based; settings: 100 TCID50, p24 ELISA on fourth day post-infection, triplicate, mean ± standard deviation, read-out: EC50 (nM) for inhibiting HIV-1BaL infection
Excerpt: (§6) To measure the inhibitory activity of the peptides on infection of HIV-1IIIB and HIV-1BaL, 1 × 10^4 MT-2 cells and TZM-b1 cells, respectively, were infected with 100 times the median tissue culture infective dose of a virus in the presence or absence of the peptides at graded concentrations. On the fourth day post-infection, the culture supernatants were collected for detection of p24 antigen using an enzyme-linked immunosorbent assay (ELISA). The percent inhibition by the peptides and EC50 values was calculated using Calcusyn software.[27]

[6] = system: HIV-1IIIB; test: HIV-1IIIB infection assay (MT-2 cells, p24 ELISA); type: cell-based; settings: 100 TCID50, p24 ELISA on fourth day post-infection, triplicate, mean ± standard deviation, read-out: EC50 (nM) for inhibiting HIV–1IIIB infection
Excerpt: as §6

[7] = system: HIV-1 Env-mediated cell–cell fusion; settings: read-out: EC50 (nM) for inhibiting cell–cell fusion; HL2/3 and TZM-bl cells coincubated 6–8 h at 37 °C, luciferase read-out; triplicate, mean ± standard deviation
Protocol: Cell–cell fusion assays were performed as described previously.[26] HL2/3 cells, which stably express HIV Gag, Env, Tat, Rev, and Nef proteins, as well as TZM-bl cells, which stably express large amounts of CD4 and CCR5, were obtained from the NIH AIDS Reference and Reagent Program (contributed by Drs Barbara Felber and George Pavlakis and Drs John C. Kappes and Xiaoyun Wu, respectively). TZM-bl cells (2.5 × 10^4 per well) and HL2/3 cells (7.5 × 10^4 per well) were coincubated in 96-well plates (Corning Costar) at 37 °C in 5% CO2 in the presence of different concentrations of inhibitors. After incubation for 6–8 h, the medium was aspirated, the cells were washed and lysed, and luciferase activity was measured using the Luciferase Assay System (Promega, Madison, WI) on a SpectraMax M5 plate reader (Molecular Devices, Sunnyvale, CA).

[8] = rat (Sprague-Dawley, three pooled) liver homogenate, 4 mL Tris–HCl 50 mM pH 7.4 per g, 9,000g supernatant, peptide 10 μg/mL, LC-MS/MS (SIM) (Fig. 4B)
Protocol: (§7) Qualification assay. Chromatographic analyses were performed using an ODS-C8 column (5 μm, 100 mm × 2.0mm ID) kept at ambient temperature. The mobile phase was composed of acetonitrile-water-formic acid in the ratio of 60:40:0.1 (v/v/v) at a flow rate of 0.3 mL/min. The sample injection volume was 10 μL. Acetonitrile was HPLC grade, and other chemical reagents and solvents were analytical grade. A Thermo TSQ Quantum Discovery MAX triple–quadruple tandem mass spectrometer equipped with ESI source (San Jose, CA) and Surveyor LC pump were used for LC-MS/MS analysis. Data acquisition and data processing were performed by using Xcalibur software and LCQuan 2.0 data analysis program (Thermo Finnigan), respectively. Optimized MS parameters were as below: 4800 V spray voltage, 10.0 psi sheath gas pressure, 1.0 psi auxiliary valve flow, and 300 °C of capillary temperature. When running collision-induced dissociation (CID), the pressure was set to 1.5 mTorr. The selected ion monitoring (SIM) mode was preformed for T20
(§8) Preparation of Samples. By use of a simple protein precipitation method, a test compound was extracted from liver
(§9) homogenate and 20 ng/mL proteinase K in PBS, respectively. Samples for standard curves were prepared by spiking 50
(§10) μL of rat liver homogenate or 20 ng/mL proteinase K with 100 μL of various concentrations of each test compound
(§11) ranging from 0.1－5 μg/mL in ethanol. […]

[9] = target: proteinase K (Parengyodontium album, UniProt P06873); settings: 20 ng/mL proteinase K in PBS, peptide 10 μg/mL, LC-MS/MS (SIM) (Fig. 4A)
Chain of proteinase K (P06873 106-384): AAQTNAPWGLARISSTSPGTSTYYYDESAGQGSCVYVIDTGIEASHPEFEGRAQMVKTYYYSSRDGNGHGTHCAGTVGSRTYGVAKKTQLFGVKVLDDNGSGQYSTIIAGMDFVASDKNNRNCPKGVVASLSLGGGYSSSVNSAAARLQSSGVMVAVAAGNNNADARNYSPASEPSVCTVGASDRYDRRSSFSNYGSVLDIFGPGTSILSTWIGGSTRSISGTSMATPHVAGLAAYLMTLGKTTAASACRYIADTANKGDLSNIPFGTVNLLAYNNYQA
Protocol: as §7, §8, §9, §10, §11

Row | Compound | Helicity (%) [1] | Tm (°C) [2] | [θ]G/[θ]0 ([θ]222 with Gdn·HCl vs. without) / resistance to Gdn·HCl unfolding [3] | Sedimentation coefficient [4] | Observed molecular mass (kDa) by sedimentation analysis [4] | EC50 [5] | EC50 [6] | EC50 [7] | proteolytic stability in liver homogenate, compared with T20 [8] | proteolytic stability in proteinase K, compared with T20 [9]
1 | CC[C@H](C)[C@H](NC(=O)[C@H](CCC(N)=O)NC(=O)[C@H](CCC(N)=O)NC(=O)[C@@H](NC(=O)[C@H](CCCNC(=N)N)NC(=O)[C@H](CCC(N)=O)NC(=O)[C@H](CCC(=O)O)NC(=O)[C@@H](NC(=O)[C@H](Cc1c[nH]cn1)NC(=O)[C@H](Cc1c[nH]cn1)NC(=O)[C@@H](NC(=O)[C@H](CCCCN)NC(=O)[C@H](CCC(N)=O)NC(=O)[C@H](CCC(=O)O)NC(=O)[C@@H](NC(=O)[C@H](CCC(N)=O)NC(=O)[C@H](CCC(N)=O)NC(=O)[C@@H](NC(=O)[C@H](CCCNC(=N)N)NC(=O)[C@H](Cc1c[nH]c2ccccc12)NC(C)=O)[C@@H](C)CC)[C@@H](C)CC)[C@@H](C)CC)[C@@H](C)CC)[C@@H](C)CC)C(=O)N[C@@H](CCC(=O)O)C(=O)N[C@@H](CCC(N)=O)C(N)=O [Compound 3HR] (Ac-WRIQQIEQKIHHIEQRIQQIEQ-NH2) | 46.4% | 44 °C | completely lost its tertiary structure | 1.2 s | 9.9 kDa |  |  |  |  | 
2 | CC[C@H](C)[C@H](NC(=O)[C@H](CCC(N)=O)NC(=O)[C@H](CCC(N)=O)NC(=O)[C@@H](NC(=O)[C@H](CCCNC(=N)N)NC(=O)[C@H](CCC(N)=O)NC(=O)[C@H](CCC(=O)O)NC(=O)[C@@H](NC(=O)[C@H](CCC(N)=O)NC(=O)[C@H](CCC(N)=O)NC(=O)[C@@H](NC(=O)[C@H](CCCNC(=N)N)NC(=O)[C@H](CCC(N)=O)NC(=O)[C@H](CCC(=O)O)NC(=O)[C@@H](NC(=O)[C@H](Cc1c[nH]cn1)NC(=O)[C@H](Cc1c[nH]cn1)NC(=O)[C@@H](NC(=O)[C@H](CCCCN)NC(=O)[C@H](CCC(N)=O)NC(=O)[C@H](CCC(=O)O)NC(=O)[C@@H](NC(=O)[C@H](CCC(N)=O)NC(=O)[C@H](CCC(N)=O)NC(=O)[C@@H](NC(=O)[C@H](CCCNC(=N)N)NC(=O)[C@H](Cc1c[nH]c2ccccc12)NC(C)=O)[C@@H](C)CC)[C@@H](C)CC)[C@@H](C)CC)[C@@H](C)CC)[C@@H](C)CC)[C@@H](C)CC)[C@@H](C)CC)C(=O)N[C@@H](CCC(=O)O)C(=O)N[C@@H](CCC(N)=O)C(N)=O [Compound 4HR] (Ac-WRIQQIEQKIHHIEQRIQQIEQRIQQIEQ-NH2) | 99.5% | higher than 90 °C | ~0.2 | 1.3 s | 10.5 kDa |  |  |  |  | 
3 | CC[C@H](C)[C@H](NC(C)=O)C(=O)N[C@@H](CCC(=O)O)C(=O)N[C@@H](C)C(=O)N[C@@H](CCC(N)=O)C(=O)N[C@@H](CCC(N)=O)C(=O)N[C@@H](Cc1c[nH]cn1)C(=O)N[C@@H](CC(C)C)C(=O)N[C@@H](CC(C)C)C(=O)N[C@@H](CCC(N)=O)C(=O)N[C@@H](CC(C)C)C(=O)N[C@H](C(=O)N[C@H](C(=O)N[C@@H](Cc1c[nH]c2ccccc12)C(=O)NCC(=O)N[C@H](C(=O)N[C@@H](CCCCN)C(=O)N[C@@H](CCC(N)=O)C(=O)N[C@@H](CC(C)C)C(=O)N[C@@H](CCC(N)=O)C(=O)N[C@@H](C)C(=O)N[C@@H](CCCNC(=N)N)C(=O)N[C@H](C(=O)N[C@@H](CC(C)C)C(N)=O)[C@@H](C)CC)[C@@H](C)CC)C(C)C)[C@@H](C)O [Compound N23, reference compound] (Ac-IEAQQHLLQLTVWGIKQLQARIL-NH2) | 16.8% | not detected |  |  |  | > 10000 nM | > 10000 nM | > 5000 nM |  | 
4 | I: Ac-WRIQQIEQKIHHIEQRIQQIEQ-NH2 / II: Ac-WRIQQIEQKIHHIEQRIQQIEQ-NH2 / III: Ac-WRIQQIEQKIHHIEQRIQQIEQ-NH2 (amide I:9-III:14, I:14-II:9, II:14-III:9) [(3HR)3] | 83.4% | higher than 90 °C | almost unbreakable | 1.2 s | 9.2 kDa | > 10000 nM | > 10000 nM | > 5000 nM |  | 
5 | I: Ac-WRIQQIEQKIHHIEQRIQQIEQRIQQIEQ-NH2 / II: Ac-WRIQQIEQKIHHIEQRIQQIEQRIQQIEQ-NH2 / III: Ac-WRIQQIEQKIHHIEQRIQQIEQRIQQIEQ-NH2 (amide I:9-III:14, I:14-II:9, II:14-III:9) [(4HR)3] |  | higher than 90 °C | almost unbreakable | 1.5 s | 13.3 kDa | > 10000 nM | > 10000 nM | > 5000 nM |  | 
6 | W RIQQIEQ KI HHIE Q RIQQIEQ RIEAQQH LLQLTVW GIKQLQA RIL (sidechain bridge or staple) [(3HRN23)3] | 89.6% | > 90 °C |  | 1.6 s | 17.3 kDa | 58.2 ± 1.5 nM | 21.3 ± 1.8 nM | 10.2 ± 0.9 nM | much more resistant than T20 | much more resistant than T20

— PMC6054081, “De novo design of isopeptide bond-tethered triple-stranded coiled coils with exceptional resistance to unfolding and proteolysis: implication for developing antiviral therapeutics” (Chemical Science, 2015)
